{"source": "paper PMC9589286", "about": "“Ruthenium polypyridine complexes with triphenylamine groups as antibacterial agents against Staphylococcus aureus with membrane-disruptive mechanism” (Frontiers in Chemistry, 2022)", "key": {"[1]": {"test_system": "Staphylococcus aureus biofilm", "test": "Biofilm formation, crystal violet staining", "format": "cell-based", "experimental": "24 well plate was used for biofilm determination. The overnight cultured Staphylococcus aureus strain was diluted 1000 times with fresh TSB medium. Then 2 ml of that diluted bacterial solution was mixed with 500 µL Ru-3 of different concentrations in a 24 well plate. After incubation at 37°C for 48 h, the bacterial suspension was removed and the plate was washed three times with PBS. The adherent bacteria were dried overnight at 37°C and then dyed through 0.1% crystal violet solution. After 2 min, taking out the crystal violet solution and wash the plate with PBS again. And then, adding 1 ml acetic acid and 1 ml water, the formation of biofilm can be determined by monitoring the absorbance at 595 nm."}, "Staphylococcus aureus [2]": {"test_system": "Staphylococcus aureus", "test": "MIC by microdilution in TSB broth", "format": "cell-based", "details": "S. aureus, 37°C, 20 h", "experimental": "(§1) Antibacterial activity was evaluated by measuring MIC (minimum inhibitory concentration) and MBC (minimum bactericidal concentration) values. The MIC value was measured by the microdilution method using TSB broth with 96 well plates ([Carlsen et al., 1981]) and the MBC value was determined by LB plates. In brief, the overnight cultured bacteria were 1: 1000 diluted with fresh medium to get a bacterial suspension. After incubation at 37°C for 20 h, the growth of bacteria is monitored by observing the turbidity of the culture. The bacterial solution was diluted as above method and the complexes were incubated with bacterial solution for 2 h. Then 100 μL bacterial solution was taken for plate coating. The Staphylococcus aureus growth inhibition trend in the presence of complexes was obtained. The MBC values of complexes were determined by LB plates after culturing in the same method for 24 h. All experiments were controlled with sterile water and repeated in parallel at least three times."}, "Staphylococcus aureus [3]": {"test_system": "Staphylococcus aureus", "test": "In vivo antibacterial activity, mouse skin infection model", "set-up": "species or system mice", "details": "cream with 50 μg ml^−1, 4 times a day, after 4 days", "experimental": "S. aureus was cultured in TSB medium to exponential phase. Bacterial precipitates were collected and washed with PBS three times by centrifugation, which was diluted to OD600 = 1 (1.02 × 10^8 CFU/ml) with sterile normal saline. The day before the infection, the hair on the back of the mice was shaved off. Then depilatory cream (Veet®) was used to remove the remaining hair. Subsequently, 100 μL S. aureus was injected in subcutaneous and the abscess formed after 12 h later. All mice infected with S. aureus were divided into two groups (n = 5 in each group), including control group and treatment group, Ru-3 (0.05 mg ml^−1), which was fully mixed in sterile cream. Afterwards, mouse abscesses were treated with creams containing Ru-3 4 times a day. After 10 days, the experiment was ended. The study was conducted in strict accordance with NIH guidelines for the care and use of laboratory animals (NIH Publication No. 85–23, revised in 1985), and was reviewed and approved by the institutional animal care and use Committee of Guangxi Normal University (Guilin, China)."}, "Staphylococcus aureus [4]": {"test_system": "Staphylococcus aureus", "test": "MBC determined by LB plates", "format": "cell-based", "details": "S. aureus, 24 h", "experimental": "as §1"}, "[5]": {"test_system": "Staphylococcus aureus in biofilm", "test": "Killing bacteria in established biofilm", "format": "cell-based", "details": "32 μg ml^−1; initial 8.62", "experimental": "To establish bacterial biofilm, the overnight cultured Staphylococcus aureus strain was diluted 1000 times with fresh TSB medium, then the bacterial suspension was transferred to 96 well plate and cultured for 24 h. Subsequently, the supernatant was removed and the formed biofilm was washed 3 times with PBS solution. 200 μL solution containing Ru-3 of different concentrations (512, 256, 128, 64, 32, 16, 8, 4 μg ml^−1) were added and further incubated at 37°C for 24 h. Biofilm without Ru-3 were used as positive controls. Then the supernatant was discarded and the residual biofilm was cleaned using 200 μL PBS 3 times. Next, fresh medium was added to culture for 24 h ([Yang et al., 2021]). The solution after culture was diluted 1000 times and 100 μL was taken out for plate coating and counting."}}, "data": [{"substance": "[Ru(dmb)2PMA] (PF6)2 [Ru-3]", "values": [{"measurement": "biofilm formation reduced by", "setting": "[1]; 1 μg ml^−1, 48 h", "value": 27, "unit": "%"}, {"measurement": "Nomalized Biofilm formation", "setting": "[1]; 1 μg/mL", "value": 73, "unit": "%"}, {"measurement": "biofilm formation reduced by", "setting": "[1]; 2 μg ml^−1, 48 h", "value": 41, "unit": "%"}, {"measurement": "Nomalized Biofilm formation", "setting": "[1]; 2 μg/mL", "value": 59, "unit": "%"}, {"measurement": "MIC", "setting": "Staphylococcus aureus [2]", "value": 4, "unit": "µg/mL"}, {"measurement": "degree of wound healing", "setting": "Staphylococcus aureus [3]", "value": "increased significantly"}, {"measurement": "MBC", "setting": "Staphylococcus aureus [4]", "value": 32, "unit": "µg/mL"}, {"measurement": "number of the survival Staphylococcus aureus in the biofilm", "setting": "[5]", "value": "0 log10 colony-forming units per milliliter (CFU/ml)"}]}]}
